Assay results taken from patent EP3797781A1, “USE OF EC-7072 AND SYNERGIC COMPOSITIONS THEREOF IN TREATMENT OF CHRONIC LYMPHOCYTIC LEUKEMIA” (priority 2019, dated 2021).

Key:
Type in all cases: cell-based, human
isolated CLL cells = experiment: Western blotting of isolated CLL cells
Procedure: Isolated CLL cells were treated with 200 nM EC-7072 for 3, 8 and 12 hours and lysed with lysis buffer [50 mM Tris-HCl (pH 8), 150 mM NaCl, 1 mM EDTA, 1% NP-40, 20 mM NaF, EDTA-free protease inhibitor cocktail and phosSTOPTM (Roche)]. After heat denaturation, 25 µg protein were resolved on 10% and 15% SDS-PAGE gels and transferred to PVDF membranes (Sigma-Aldrich). Membranes were blocked with 5% BSA and incubated overnight at 4 °C with the corresponding primary antibodies (p-PLCγ2 (Y759), p-ERK1/2 (T202/Y204), p-STAT3 (Y705), p-LYN (Y507), STAT3 and GAPDH from Cell Signaling, and PLCγ2, ERK1/2, LYN, BCL-xL and Noxa from Santa Cruz Biotechnology). Blots were developed with secondary antibodies conjugated to IRDye680 or IRDye800 (Li-Cor Biosciences) and signal was detected on an Odyssey scanner.
Levels of phosphorylated and total proteins were quantified following Western blotting by densitometric analysis employing ImageJ software (https://imagej.nih.gov/ij/). To determine relative protein amounts, signal intensities were first normalized to GAPDH and the ratio between phosphorylated and total proteins was then calculated.
Western blot analysis of BCL-xL and Noxa in isolated CLL cells (n = 3) treated with 200 nM EC-7072 for the indicated times was performed (Figure 6E).
The inhibition of the tonic BCR pathway by EC-7072 was evaluated by: • (i) incubating PBMCs from patients with CLL, following treatment with 200 nM EC-7072, for 8 hours. Surface expression of CD79A (Figure 7A), CD79B (Figure 7B) and IgM (Figure 7C) in leukemia cells (n = 5 - 6) was assessed by flow cytometry and the MFI was normalized to the control (DMSO) condition; • (ii) incubating isolated leukemia cells from patients with CLL (n = 10), following treatment with EC-7072 (200 nM), for 8 hours. Phosphorylation levels of p-SYK (Figure 7D), p-BTK (Figure 7E) and p-PLCy2 (Figure 7F) proteins and p-ERK1/2 (Figure 7G), p-AKT (Figure 7H), p-p65 NPκB (Figure 7I) and p-STAT3 (Figure 7J) were evaluated by phosphoflow and the MFI was normalized to the control (DMSO) from each individual patient; • (iii) incubating PBMCs from patients with CLL (n = 8), following treatment with EC-7072 (200 nM), for 8 hours. Viability was determined by DiOC6(3)/PI staining and normalized to the control (DMSO) condition for each individual patient to obtain the mean percentage of viable [DiOC6(3)^+] cells (Figure 7K); • (iv) incubating isolated CLL cells (n = 4) stimulated with CD40L (100 ng/mL) or IL-6 (40 ng/mL) for 15 minutes and detecting respective phosphorylation levels of p65 NF-κB (Figure 7L) and STAT3 (Figure 7M) by phosphoflow to obtain the mean MFI normalized to the control (DMSO) condition for each individual patient; • (v) incubating isolated leukemia cells from 3 patients with CLL, following treatment with 200 nM EC-7072, for 3, 8 and 12 hours. Protein lysates were immunoblotted to detect the phosphorylated (p-LYN, p-PLCγ2, p-STAT3 and p-ERK1/2) and total protein (LYN, PLCγ2, STAT3 and ERK1/2) levels (Figure 7N); • (vi) incubating isolated leukemia cells from 3 patients with CLL, following treatment with 200 nM EC-7072, for 3, 8 and 12 hours and immunoblotting of protein lysates to detect p-LYN, LYN, p-PLCγ2, PLCγ2, p-STAT3, STAT3, p-ERK1/2 and ERK1/2. […]

BCL2 = BCL2 levels by intracellular flow cytometry in isolated CLL cells; conditions: 200 nM, 12 and 18 hours; isolated CLL cells (n = 6)
Procedure: The dysregulation of BCL2 expression in primary CLL by EC-7072 was evaluated by: • (i) incubating isolated CLL cells (n = 6) from patients with CLL following treatment with EC-7072 (200 nM) for 6 hours and extracting total RNA. Relative expression of BLC2 was determined by qPCR to obtain the mean relative expression to the control (DMSO) condition (Figure 6F); • (ii) incubating isolated CLL cells (n = 6) following treatment with 200 nM EC-7072 for 12 and 18 hours. BCL2 levels were evaluated by intracellular flow cytometry (Figure 6G); • (iii) incubating isolated T cells (n = 3) from patients with CLL following treatment with EC-7072 (200 nM) for 6 hours and extracting total RNA. Relative expression of BLC2 was determined by qPCR to obtain the mean relative expression to the control (DMSO) condition (Figure 6H); • (iv) incubating PBMCs (Figure 6I) and isolated T cells (Figure 6J) from patients with CLL (n = 3) following treatment with 200 nM EC-7072 for 24 hours. T-cell death and apoptosis were assessed by DiOC6(3)/PI staining to obtain percentages of viable [DiOC6(3)^+] cells and the mean percentages of apoptotic [DiOC6(3)^low PI^-] and dead [PI^+] cells.

CD79A, CD79B and IgM = experiment: Surface expression of BCR complex components on leukemia cells by flow cytometry; conditions: 200 nM, 8 hours; n = 5 - 6
From the text: To determine immune cell populations, the following antibodies were employed: anti-CD19-APC, anti-CD3-APC, anti-CD4-PerCP and anti-CD8-APC (all from Immunostep); anti-CD3-FITC and anti-CD56-APC (Cytognos); and anti-CD3-PE/Cy7 and anti-CD5-APC/Cy7 (Biolegend). The subsets of immune cells were identified as follows: T cells were defined as CD3^+CD56^-, NK cells were identified as CD3^-CD56^+ and healthy B cells as CD19^+. Leukemia cells were defined as CD19^+, as the percentage of healthy B cells (CD19^+CD5^-) detected in PBMCs from patients with CLL was less than 2% (data not shown). Additionally, antibodies from Biolegend were used to detect surface expression of CD79A (clone: HM47), CD79B (clone: CB3-1) and IgM (clone: MHM-88). Cells were analyzed in a BD FACS Canto II flow cytometer with FACS Diva software (Beckton Dickinson).
The inhibition of the tonic BCR pathway by EC-7072 was evaluated by: • (i) incubating PBMCs from patients with CLL, following treatment with 200 nM EC-7072, for 8 hours. Surface expression of CD79A (Figure 7A), CD79B (Figure 7B) and IgM (Figure 7C) in leukemia cells (n = 5 - 6) was assessed by flow cytometry and the MFI was normalized to the control (DMSO) condition; • (ii) incubating isolated leukemia cells from patients with CLL (n = 10), following treatment with EC-7072 (200 nM), for 8 hours. […]

[1] = 200 nM, 3, 8 and 12 hours, 3 patients

## CO[C@@H]([C@@H]1Cc2cc3cc(O[C@H]4C[C@@H](O[C@H]5C[C@@H](O)[C@H](O)[C@@H](C)O5)[C@H](O)[C@@H](C)O4)c(C)c(O)c3c(O)c2C(=O)[C@H]1O[C@H]1C[C@@H](O[C@H]2C[C@@H](O[C@H]3C[C@](C)(O)[C@H](O)[C@@H](C)O3)[C@@H](O)[C@@H](C)O2)[C@H](O)[C@@H](C)O1)[C@@H](O)C(C)=O [EC-7072, mithramycin SK]
Isolated CLL cells; [1]
  levels of p-STAT3 (Western blotting): diminished
  p-LYN, p-PLCγ2 and p-ERK1/2 (Western blotting): time-dependent reduction
  total amount of LYN, PLCγ2 and STAT3: downregulate
Isolated CLL cells; 200 nM, time-dependent, n = 3
  levels of the antiapoptotic protein BCL-xL: decreased
  levels of the proapoptotic protein Noxa: increase
BCL2
  protein levels of BCL2: mild, but significant, decrease
CD79A, CD79B and IgM
  CD79A CLL cell surface expression: unchanged
  CD79B and IgM CLL cell surface expression: significantly decreased
